≈ marks a conversion by molar mass, not a printed value. Like-named read-outs stand apart in the source and are kept apart here. Where no end group is shown, it is not given here.
Experiments:
[1] = system: Murine peritoneal macrophages; assay: MTT-test
Procedure: Before the cells extraction, mice were sacrificed by cervical dislocation in accordance with the supplement to the Directive 86/609/EEC and its update Directive 2010/63/EU addressing the recommendations for euthanasia of experimental animals (Close et al., [1996]). To obtain peritoneal macrophages, healthy mice were used. The abdominal cavity of each animal was washed with 3 ml of sterile PBS using a Pasteur pipette. The culture of EAC cells was kindly provided by Dr. E.P. Kiseleva (Immunology Department of the Institute of Experimental Medicine, Saint Petersburg, Russia). On the tenth day after the intraperitoneal tumor inoculation, 0.5–1.5 ml of ascitic fluid containing EAC cells was obtained from the abdominal cavity of the animals. Murine cells (normal or tumor) were washed twice with 10 ml of sterile PBS and resuspended in RPMI-1640 medium as described above for human neutrophils and PBMC.
We calculated Fractional Effective Concentration Index (FECI), which could be seen as a particular case of the interaction index (I) proposed by Berenbaum ([1977]) or of the similar combination index (CI) proposed by Chou and Talalay ([1983]), according to the equation below: […]
Here, [MEC A] and [MEC B] are the minimum effective concentrations (MEC) of substances A and B, when they are used alone. […] [A] and [B] are respective concentrations of substances A and B in their combination, where the same statistically significant difference is detected. A non-parametric Mann-Whitney U-test (p < 0.05 or p < 0.01) was used for the mentioned statistical comparison.
We have chosen the same intervals as that of FICI to determine synergy, additivity, independent action, and antagonism based on the minimal FECI values. However, in case of cytotoxic or hemolytic effect we were interested mainly in testing the possibility of additive or synergistic interaction itself, and not in assessing the exact magnitude of such interaction. Thus, in contrast to the “checkerboard titration” method used for combined antimicrobial activity investigation, studying the combined cytotoxic effect, we considered only two combinations of concentrations for the substances A and B in the mixture: • (½ MEC A + ½ MEC B), which, if found effective, provides the FECI value of 1 (the threshold value for additivity); • (¼ MEC A + ¼ MEC B), which, if found effective, provides the FECI value of 0.5 (the threshold value for synergetic interaction).
When action on tumor cells was tested in combination with antitumor antibiotic the lower concentrations up to ( 1/16 MEC A + 1/16 MEC B) as in checkerboard titration were additionally examined to assess the magnitude of synergistic effect more precisely. The final conclusion was made based on the three independent experiments.
Standard MTT-test (Mosmann, [1983]) was used for the examination of the cytotoxic activity of antimicrobial compounds and their combinations toward varied eukaryotic cells. Briefly, cell suspensions in RPMI-1640 prepared as described in Eukaryotic Cells were dispensed into the 96-well microplates (2 × 10^5 cells/well). Then, serial dilutions of AMPs, or other antibiotic compounds, or their mixtures in RPMI-1640 were added. In positive controls (100% cell survival) the according volume of RPMI-1640 without test substances was added instead. The final volume in each well was 100 μl. Negative controls (0% cell survival) were made with 100 μl of the sterile RPMI-1640. The plates were incubated at 37°C under 5% CO2 for 24 h. Four hours before the end of incubation, 10 μl of metabolic marker MTT−3-(4,5-dimethylthiazol-2-yl)-2,5-diphenyltetrazolium bromide (5 mg/ml, diluted in PBS) was added to each well. Incubation was stopped by adding 90 μl of isopropanol containing 0.04 M HCl. Content of the wells was thoroughly mixed, so that the formazan crystals, formed in case of the reduction of MTT in presence of actively metabolizing cells, were fully dissolved.

E. coli ML-35p [2] = assay: microbe, parasite or virus in culture; type: cell-based, Escherichia coli; settings: median of 3–6 experiments, value in square brackets = twice the maximal tested concentration, read-out: MIC
Procedure: Prior to the “checkerboard” synergy test the minimal inhibitory concentrations (MIC) of individual substances were determined using broth microdilution assay. Testing was performed in 60-well polystyrene Terasaki microplates with V-shaped bottom generally according to the guidelines of the European Committee for Antimicrobial Susceptibility Testing with subtle modifications designed for AMP testing (Tossi et al., [1997]; Wiegand et al., [2008]). Cultivation of bacteria was carried out in 2.1% Müller-Hinton broth at 37°C with shaking. Two-fold serial dilutions of peptides, antibiotics and other antimicrobials were made with 10 mM sodium phosphate buffer, pH 7.4, containing 0.1% of BSA. The plates were preliminary incubated with 0.1% BSA for 1 h at 37°C to reduce a non-specific binding of peptides to the plates. After that BSA was removed, and serial dilutions were added into the plate wells in triplicates followed by the same volume of the suspension of bacterial cells in logarithmic phase of growth in concentration of 1 × 10^6 CFU/ml. After the 18 h overnight incubation at 37°C, the MIC value for each compound was determined as its lowest concentration completely inhibiting the visible growth of bacteria. The final results were calculated as median values based on 3–6 independent experiments.

E. coli ML-35p [3] = assay: Bacterial membrane permeabilization assay, inner membrane (ONPG); type: cell-based, Escherichia coli; settings: ONPG marker; for effect on cytoplasmic membrane permeability, substance alone (in words): ¼ MIC
Source text: The method is based on the certain features of the specifically designed E. coli ML-35p bacterial strain. As its parental strain E. coli ML-35, this bacterium constitutively expresses cytoplasmic β-galactosidase, but is unable to transport β-galactoside containing substrates through the inner membrane in normal circumstances due to the lack of lactose permease. […] If the cytoplasmic membrane of the bacterium is damaged, the chromogenic marker o-nitrophenyl-β-D-galactoside (ONPG) penetrates into the cell and, when digested by bacterial β-galactosidase, produces a colored product o-nitrophenol. The accumulation of the latter can be spectrophotometrically detected at a wavelength of 420 nm.
Escherichia coli ML-35p was cultivated in the sterile 3% Trypticase soy broth (TSB) for 18 h at 37°C, then washed three times with 10 mM sodium phosphate buffer, pH 7.4 (10 min centrifugation at 600 g and 4°C), diluted up to the OD of 0.4 at 620 nm (1 × 10^8 CFU/ml concentration), and used immediately or kept on ice until the start of the test. […] Controls contained equivalent volume of acidified water instead of antimicrobial agent(s). The assay was started by adding the bacteria and was run at 37°C, with periodical shaking. Optical density (OD) measurement at 420 nm was performed every minute for 1–2 h using SpectraMax 250 Microplate Spectrophotometer (Molecular Devices, USA) and its SoftMax PRO software.
(A) Permeability of the inner membrane for a chromogenic marker o-nitrophenyl-β-D-galactoside (ONPG). ¼ of minimal inhibitory concentrations (MICs) of antimicrobial peptides (AMPs) and antibiotics were used when alone, and ¼ MIC of AMP + ¼ MIC of antibiotic when in combination. Curves illustrate ONPG degradation by the cytoplasmic β-galactosidase of bacteria, when the membranes are damaged by test substances. Curves slope and the time of their rising to the plateau correspond to the extent of this damage. […] Nitrocefin is a substrate for the periplasmic β-lactamase of the bacteria. RIF, rifampicin; PMB, polymyxin B; GEN, gentamicin; OFL, ofloxacin; OX, oxacillin.

[4] = Murine peritoneal macrophages, normal cells, MTT, 24 h

Compound	MEC of cytotoxic action ([1]; mouse, 24 h)	MIC (E. coli ML-35p [2]; Escherichia coli, ML35P)	effect on cytoplasmic membrane permeability, substance alone (in words) (E. coli ML-35p [3])	other results
Polymyxin B	–	–	–	MEC of cytotoxic action [1, 4]: 50 µM; MIC (E. coli ML-35p [2]): 0.4 µM
CNC(C)C1CCC(N)C(OC2C(N)CC(N)C(OC3OCC(C)(O)C(NC)C3O)C2O)O1 (stereo not drawn) [Gentamicin]	>50 [100] μM	0.625 µM (≈ 0.299 µg/mL)	no substantial increase	–
RFRLPFRRPPIRIHPPPFYPPFRRFL-NH2 (C-terminus assumed) [ChBac3.4]	–	–	no substantial effect	MEC of cytotoxic action [1]: >20 [40] μM; development of membrane-damaging effect in combination with rifampicin (in words) (E. coli ML-35p [3]; ¼ MIC + ¼ MIC rifampicin): slight acceleration
CC1COc2c(N3CCN(C)CC3)c(F)cc3c(=O)c(C(=O)O)cn1c23 (stereo not drawn) [Ofloxacin]	>50 [100] μM	0.125 µM (≈ 0.0452 µg/mL)	–	–
CO[C@H]1/C=C/O[C@@]2(C)Oc3c(C)c(O)c4c(O)c(c(/C=N/N5CCN(C)CC5)c(O)c4c3C2=O)NC(=O)/C(C)=C\C=C\[C@H](C)[C@H](O)[C@@H](C)[C@@H](O)[C@@H](C)[C@H](OC(C)=O)[C@@H]1C [Rifampicin]	>20 [40] μM	10 µM (≈ 8.23 µg/mL)	–	–
Cc1onc(-c2ccccc2)c1C(=O)N[C@@H]1C(=O)N2[C@@H]1SC(C)(C)[C@@H]2C(=O)O [Oxacillin]	>50 [100] μM	> 250 µM	–	–
Lysozyme: egg white lysozyme, antimicrobial protein, from BioChemica	–	–	–	MEC of cytotoxic action [1]: >50 [100] μM
CC[C@H](C)[C@H](NC(=O)[C@H](CCCCN)NC(=O)[C@H](CCC(=O)O)NC(=O)[C@H](CCCCN)NC(=O)[C@H](CO)NC(=O)[C@H](CCCCN)NC(=O)[C@H](CCCNC(=N)N)NC(=O)[C@H](Cc1ccccc1)NC(=O)[C@H](Cc1ccccc1)NC(=O)[C@H](CC(=O)O)NC(=O)CNC(=O)[C@H](CC(C)C)NC(=O)[C@@H](N)CC(C)C)C(=O)NCC(=O)N[C@@H](CCCCN)C(=O)N[C@@H](CCC(=O)O)C(=O)N[C@@H](Cc1ccccc1)C(=O)N[C@@H](CCCCN)C(=O)N[C@@H](CCCNC(=N)N)C(=O)N[C@H](C(=O)N[C@H](C(=O)N[C@@H](CCC(N)=O)C(=O)N[C@@H](CCCNC(=N)N)C(=O)N[C@H](C(=O)N[C@@H](CCCCN)C(=O)N[C@@H](CC(=O)O)C(=O)N[C@@H](Cc1ccccc1)C(=O)N[C@@H](CC(C)C)C(=O)N[C@@H](CCCNC(=N)N)C(=O)N[C@@H](CC(N)=O)C(=O)N[C@@H](CC(C)C)C(=O)N[C@H](C(=O)N1CCC[C@H]1C(=O)N[C@@H](CCCNC(=N)N)C(=O)N[C@H](C(=O)N[C@@H](CCC(=O)O)C(=O)N[C@@H](CO)C(=O)O)[C@@H](C)O)C(C)C)[C@@H](C)CC)C(C)C)[C@@H](C)CC [LL-37]	–	–	quite slow enhance of the membrane permeability	MEC of cytotoxic action [1, 4]: >20 [40] μM; effect on cytoplasmic membrane permeability in presence of gentamicin vs peptide/protein alone (in words) (E. coli ML-35p [3]; ¼ MIC + ¼ MIC gentamicin): developing rather quickly

Reference: PMC6503114, “Application of Antimicrobial Peptides of the Innate Immune System in Combination With Conventional Antibiotics—A Novel Way to Combat Antibiotic Resistance?” (Frontiers in Cellular and Infection Microbiology, 2019)
